Data as given in paper PMC11013284, “Chemoselective Synthesis and Anti-Kinetoplastidal Properties of 2,6-Diaryl-4H-tetrahydro-thiopyran-4-one S-Oxides: Their Interplay in a Cascade of Redox Reactions from Diarylideneacetones” (Molecules, 2024).
Read-outs that look alike come from different tables or passages of the source.

Assays:
[1] = tested on: Trypanosoma brucei brucei trypomastigotes, suramin-sensitive strain (Squib 427); assay: T. b. brucei growth/viability assay (resazurin); type: cell-based; conditions: for IC50: 3 days; for anti-trypanosomal activity (IC50): Trypanosoma (T. cruzi and T. b. brucei)
Experimental: After 3 days, parasite growth was assessed fluorimetrically following the addition of resazurin. After 24 h at 37 °C, fluorescence was measured (λex = 550 nm, λem = 590 nm). The results were expressed as a percentage reduction in parasite growth/viability compared to control wells, and a 50% inhibitory concentration (IC50) was calculated.

[2] = tested on: Trypanosoma cruzi (Tulahuen CL2 β-galactosidase) amastigotes in hMRC-5SV2 cells; assay: T. cruzi intracellular amastigote assay (β-galactosidase/CPRG); type: cell-based; conditions: intracellular amastigotes, 7 days; for IC50: read-out: IC50 T. cruzi intramacrophage amastigotes (converted)
Experimental: A nifurtimox-sensitive strain (Tulahuen CL2 β-galactosidase) in human lung fibroblast hMRC-5SV2 cells was incubated for 7 days in 96-well plates with five concentrations of compound (64, 16, 4, 1, and 0.25 μM). The parasitic burden was evaluated through the activity of the enzyme β-galactosidase on a specific chlorophenol red ß-D-galactopyranoside (CPRG) substrate. Live parasites converted the yellow-orange CPRG substrate into the red chromophore chlorophenol red, yielding a dark-red solution, which could be quantitatively measured at 540 nm after 4 h of incubation at 37 °C. The results were expressed as a percentage reduction in parasite growth/viability compared to control wells, and an IC50 was calculated.

[3] = tested on: L. infantum (MHOM/MA(BE)/67) amastigotes in primary peritoneal mouse macrophages; assay: L. infantum intramacrophage amastigote assay (microscopic burden); type: cell-based, Leishmania infantum; conditions: 5 days, mouse macrophages as host
Experimental: L. infantum (MHOM/MA(BE)/67 strain) amastigote were incubated for 5 days in 96-well plates with five concentrations of compound (64, 16, 4, 1, and 0.25 μM). Primary peritoneal mouse macrophages were used as host cells. Parasite burdens (i.e., the number of amastigotes per macrophage) were microscopically assessed. The results were expressed as a percentage reduction in parasite burden compared to untreated control wells, and an IC50 was calculated.

in vitro = conditions: human, CC50 hMRC-5 (cytotoxicity)
Experimental: (§1) The cytotoxicity of compounds was evaluated toward human diploid embryonic lung fibroblast hMRC-5SV2 cells, derived from fetal lung tissue and first described in 1970. hMRC-5SV2 cells were cultured in 96-well plates with five concentrations of the compound (64, 16, 4, 1, and 0.25 μM). After 3 days of incubation, the cell viability was assessed fluorimetrically after the addition of resazurin, and fluorescence was measured (λex = 550 nm, λem = 590 nm). The results were expressed as a percentage reduction in cell growth/viability compared to control wells, and a 50% cytotoxic concentration (CC50) was calculated. The reference cytotoxic drugs were tamoxifen or ivermectin. Additionally, toxicity toward mouse macrophages was qualitatively observed. Three concentrations were included (64, 16, and 4 µM), and the range of toxicity was ranked from the least toxic to the most toxic compound.

[4] = tested on: human diploid embryonic lung fibroblast hMRC-5SV2 cells; assay: in vitro
Experimental: as §1

[5] = tested on: WT LV9 L. donovani intramacrophage amastigotes; assay: L. donovani intramacrophage amastigote assay; type: cell-based, Leishmania donovani; conditions: WT LV9, ± SD in Tables S5/S6, read-out: IC50 L. donovani intramacrophage amastigotes
murine macrophages = assay: Qualitative toxicity toward mouse macrophages; conditions: concentration at which toxicity was observed; 64, 16 and 4 µM tested
Experimental: as §1

[6] = Trypanosoma cruzi, TULAHUEN, 168 h
[7] = Leishmania infantum, Macrophage, 120 h
[8] = bracketed value after the intramacrophage IC50 (Table S5), Table S6

Row | SMILES | IC50 [1] [µM] | IC50 ([1]; Trypanosoma brucei, 72 h) [µM] | IC50 [2, 6] [µM] | IC50 [3] [µM] | IC50 [3, 7] [µM] | CC50 at 3 days (in vitro) [µM] | CC50 ([4]; human, 3 days) [µM] | IC50 [2] [µM] | CC50 [4] [µM] | IC50 [5] [µM] | observed macrophage death / lysis observed at (macrophages; [8]) [µM] | IC50 ([5]; Leishmania donovani) [µM] | anti-trypanosomal activity (IC50) [1] | IC50 L. infantum intramacrophage amastigotes [3] | Toxicity (T) observed toward murine macrophages (murine macrophages) | IC50 T. cruzi intramacrophage amastigotes [2] | observed macrophage death / lysis observed at (macrophages) [µM]
1 | COc1ccc(/C=C/C(=O)/C=C/c2ccc(OC)cc2)cc1 [1d] | 1.24 | 1.2 | 10.7 | ≥ 64 | > 64 | > 64 | ≥ 64 | – | – | – | – | – | – | – | – | – | –
2 | O=C1CC(c2ccccc2Cl)SC(c2ccccc2Cl)C1 (racemic) [2e] | > 64 | – | – | 32 | – | – | – | > 64 | > 64 | 14.2 ± 1.3 | > 150 | – | – | – | – | – | –
3 | COc1ccc(C2CC(=O)CC(c3ccc(OC)cc3)S2)cc1 (stereo not shown) [2′d] | ≥ 64 | > 64 | > 64 | ≥ 64 | > 64 | > 64 | ≥ 64 | ≥ 64 | – | – | – | > 100 | – | – | – | – | –
4 | O=C1CC(c2ccccn2)S(=O)(=O)C(c2ccccn2)C1 (racemic) [4w, (±)-trans-2,6-Di-(pyridin-2-yl)-4H-tetrahydrothiopyran-4-one 1,1-dioxide] | 0.5 | – | 0.4 | – | 2 | 7.9 | – | – | – | 5 | – | – | high nanomolar range | excellent potency | T3 (T3 = 4) | – | –
5 | COc1ccc(/C=C/C(=O)/C=C/c2ccc(OC)c(OC)c2)cc1OC [1j] | – | 2.1 | 2.1 | – | 30 | 6.9 | – | – | – | – | – | – | – | – | T1 (T1 = 64) | – | –
6 | COc1ccc(C2CC(=O)CC(c3ccc(OC)cc3)[S+]2[O-])cc1 (stereo not drawn) [3″d, (anti)- and (syn)-cis-2,6-Di-(p-anisyl)-4H-tetrahydro-thiopyran-4-one 1-oxides] | 2.4 | – | – | 27.3 | – | – | 32 | 8.5 | – | 35 | – | – | – | moderate potency | T1 (T1 = 64) | moderate potency | –
7 | COc1ccc(O)c(/C=C/C(=O)/C=C/c2cc(OC)ccc2O)c1 [1l] | – | ≤ 0.3 | 1 | – | ≥ 32 | 1.9 | – | – | – | – | – | – | – | – | – | – | –
8 | O=C1CC(c2ccccn2)SC(c2ccccn2)C1 (stereo not shown) [2′w] | 29.1 | 29.6 | > 64 | ≥ 64 | > 64 | > 64 | ≥ 64 | ≥ 64 | – | – | – | > 100 | – | – | – | – | –
9 | COc1ccc([C@H]2CC(=O)C[C@H](c3ccc(OC)cc3)S2)cc1 (relative stereo) [2d] | ≥ 64 | > 64 | > 64 | ≥ 64 | > 64 | > 64 | ≥ 64 | ≥ 64 | – | – | – | – | – | – | – | – | –
10 | O=C1CC(c2ccccn2)[S+]([O-])C(c2ccccn2)C1 (mixture of isomers) [3′w, (syn/anti)-cis-2,6-Di-(pyridin-2-yl)-4H-tetra-hydrothiopyran-4-one 1-oxide, as diastereoisomeric mixture] | – | 0.1 | 0.5 | – | 2 | 8.1 | – | – | – | – | – | 2.5 | – | – | T3 (T3 = 4) | – | –
11 | O=C1CC(c2ccccn2)[S+]([O-])C(c2ccccn2)C1 (stereo not drawn) [3w, (±)-trans-2,6-Di-(pyridin-2-yl)-4H-tetrahydrothiopyran-4-one 1-oxide] | – | 0.1 | 0.8 | – | 2 | 8 | – | – | – | – | – | 25 | – | – | T3 (T3 = 4) | – | –
12 | COc1ccc(OC)c(/C=C/C(=O)/C=C/c2cc(OC)ccc2OC)c1 [1m] | – | 0.8 | 1.1 | – | 10.4 | 1 | – | – | – | – | – | – | – | – | T1 (T1 = 64) | – | –
13 | O=C1C[C@H](c2ccccn2)S[C@@H](c2ccccn2)C1 (racemic) [2w] | – | 26.1 | > 64 | ≥ 64 | > 64 | > 64 | ≥ 64 | ≥ 64 | – | – | – | > 100 | – | – | – | – | –
14 | Cc1ccccc1/C=C/C(=O)/C=C/c1ccccc1C [1b] | > 64 | – | – | 8.1 | – | – | – | 51.7 | > 64 | 11.9 ± 1.1 | > 37.5 | – | – | – | – | – | –
15 | N#Cc1ccc(C2CC(=O)CC(c3ccc(C#N)cc3)S2)cc1 (racemic) [2t] | 1.2 | – | – | > 64 | – | – | – | 42.5 | > 64 | > 50 | > 100 | – | – | – | – | – | –
16 | COc1ccc(C2CC(=O)CC(c3ccc(OC)c(OC)c3)S2)cc1OC (racemic) [2j] | 8.1 | – | – | 32.5 | – | – | – | 7.3 | 9.3 | 19.3 ± 7.1 | > 150 | – | – | – | – | – | –
17 | CC(=O)Nc1ccc(/C=C/C(=O)/C=C/c2ccc(NC(C)=O)cc2)cc1 [1v] | 0.5 | – | – | 8.1 | – | – | – | 10.2 | 34 | > 50 | 100 | – | – | – | – | – | –
18 | O=C1CC(c2ccc(C(F)(F)F)cc2)SC(c2ccc(C(F)(F)F)cc2)C1 (racemic) [2r] | 0.5 | – | – | 32.5 | – | – | – | 2.5 | 10.2 | 68.6 ± 41.2 | 200 | – | – | – | – | – | –
19 | O=C(/C=C/c1ccccn1)/C=C/c1ccccn1 [1w] | – | 0.03 | 0.3 | – | 0.4 | 1.9 | – | – | – | – | – | – | – | – | T3 (T3 = 4) | – | –
20 | O=C1CC(c2ccccn2)S(=O)(=O)C(c2ccccn2)C1 (stereo not drawn) [4′w, cis-2,6-Di-(pyridin-2-yl)-4H-tetrahydrothiopyran-4-one 1,1-dioxide] | 0.1 | – | – | 2 | – | – | 7.5 | 0.4 | – | 1.6 | – | – | high nanomolar range | excellent potency | T3 (T3 = 4) | – | –
21 | COc1cc(Br)c(OC)c(/C=C/C(=O)/C=C/c2cc(OC)cc(Br)c2OC)c1 [1q] | – | 0.9 | 0.9 | – | 10.4 | 0.8 | – | – | – | – | – | – | – | – | T1 (T1 = 64) | – | –
22 | O=C1CC(c2ccco2)SC(c2ccco2)C1 (racemic) [2z] | > 64 | – | – | > 64 | – | – | – | > 64 | > 64 | 3.2 ± 0.8 | > 150 | – | – | – | – | – | –
23 | O=C(/C=C/c1ccco1)/C=C/c1ccco1 [1z] | – | 7.6 | 39.9 | – | 32.5 | > 64 | – | – | – | – | – | 14 ± 2.6 | – | – | T1 (T1 = 64) | – | > 50
24 | Cc1ccc(/C=C/C(=O)/C=C/c2ccc(C)o2)o1 [1za] | – | 8.2 | 2.2 | – | 8.1 | 5.4 | – | – | – | – | – | – | – | – | T2 (T2 = 16) | – | –
25 | COc1ccc(C2CC(=O)CC(c3ccc(OC)cc3)[S+]2[O-])cc1 (mixture of isomers) [3d, (±)-trans-2,6-Di-(p-anisyl)-4H-tetrahydrothiopyran-4-one 1-oxide] | – | 3.1 | – | ≥ 64 | – | 32.2 | – | 8.9 | – | 50.2 | – | – | – | – | – | – | –
26 | CC(=O)Nc1ccc(C2CC(=O)CC(c3ccc(NC(C)=O)cc3)S2)cc1 (racemic) [2v] | > 64 | – | – | > 64 | – | – | – | > 64 | > 64 | > 50 | > 100 | – | – | – | – | – | –
